Assay results from US20230348538A1, “METHOD FOR TREATMENT OF DRY EYE COMPRISNG APPLYING P55PIK INHIBITOR” (Wuhan Yicheng Biological Technology Co., Ltd., priority 2020, published 2023).

Columns and labels:
[1] = tested on: dry eye model induced by 0.2% benzalkonium chloride solution; assay: Benzalkonium chloride dry eye model: tear film break-up time (BUT); format: in vivo, C57BL/6 mice
Description: The healthy male C57BL/6 mice were kept in a controlled environment with a temperature of (25±1)° C., a relative humidity of (25±5)%, and light-dark cycles (9 AM-9 PM) with simulated dawn and dusk. Forty mice (80 eyes) were treated with 5 μL of 0.2% benzalkonium chloride solution twice a day (8:00 AM and 6:00 PM) for 14 days to induce dry eye symptoms, while the remaining ten mice (20 eyes) received no treatment and served as a baseline control. Modeling was carried out on the 15th day; and the dry eye rat models were screened based on tear film break-up time (BUT), fluorescein sodium staining of corneal, and Schirmer's test I for tear secretion. Tear film break-up time (BUT) was used to assess the tear film stability: 1 μL of 1% fluorescein sodium solution was instilled into the conjunctival sac of the mouse, and the mouse was held and blinked artificially three times; the upper and lower eyelids of the mouse were then separated; and the tear film was observed under cobalt blue filter on a slit lamp; the tear film break-up time was recorded as the number of seconds that elapse between the last blink and the appearance of the first dry spot in the tear film of the cornea; each eye was measured three times, and the average of the three measurements was recorded in seconds. […] Group A, the drug treatment group, was treated with the eye drops comprising 0.1% TAT-[…] peptide, four times a day; Group B, the solvent control group, was treated with eye drops without TAT-[…] peptide, four times a day; and Group C, the blank control group, received no treatment; on days 1, 4, and 7 after treatment, BUT, Schirmer's test I, and fluorescein sodium staining were performed; on the 7th day, the paraffin sections of the conjunctival fornix was stained by PAS stain; and the number of PAS-positive goblet cells was counted.

[2] = tested on: dry eye model induced by 0.2% benzalkonium chloride solution; assay: Benzalkonium chloride dry eye model: corneal fluorescein sodium staining score; format: in vivo, C57BL/6 mice; details: for Corneal fluorescein staining scores (x ± s): total score of 16 points
Description: The healthy male C57BL/6 mice were kept in a controlled environment with a temperature of (25±1)° C., a relative humidity of (25±5)%, and light-dark cycles (9 AM-9 PM) with simulated dawn and dusk. Forty mice (80 eyes) were treated with 5 μL of 0.2% benzalkonium chloride solution twice a day (8:00 AM and 6:00 PM) for 14 days to induce dry eye symptoms, while the remaining ten mice (20 eyes) received no treatment and served as a baseline control. Modeling was carried out on the 15th day; and the dry eye rat models were screened based on tear film break-up time (BUT), fluorescein sodium staining of corneal, and Schirmer's test I for tear secretion. Fluorescein sodium staining was carried out to determine if there any epithelial damage in the corneal of mice; one drop of 1% fluorescein sodium solution was instilled into the conjunctival sac of the mouse eyes; after 1 minute, the corneal epithelial stained by fluorescein sodium was observed under the cobalt blue filter on the slit lamp. Scoring criteria: the cornea was divided into 4 quadrants; and a scoring system was used to assess the staining; each quadrant was given a score ranging from 0 to 4 points, with a total score of 16 points. A score of 0 indicated no staining; 1 point represented less than 30 punctate staining spots; 2 points represented more than 30 punctate staining spots but not diffuse; 3 points represented obviously diffuse staining but no patchy staining; 4 points represented patchy staining. […] Group A, the drug treatment group, was treated with the eye drops comprising 0.1% TAT-[…] peptide, four times a day; Group B, the solvent control group, was treated with eye drops without TAT-[…] peptide, four times a day; and Group C, the blank control group, received no treatment; on days 1, 4, and 7 after treatment, BUT, Schirmer's test I, and fluorescein sodium staining were performed; on the 7th day, the paraffin sections of the conjunctival fornix was stained by PAS stain; and the number of PAS-positive goblet cells was counted.

[3] = tested on: rabbit model of dry eye (0.1% benzalkonium chloride); assay: Rabbit model of dry eye: Schirmer's test; format: in vivo, New Zealand white rabbits
Description: 1.2.1 Grouping: thirty New Zealand white rabbits were randomly divided into three groups, each comprising 10 rabbits: a blank control group, a solvent control group, and a drug treatment group.
1.2.2 Preparation of a rabbit model of dry eye: the right eye of each rabbit was used to establish a dry eye rabbit model by administering 0.1% benzalkonium chloride eye drops twice a day for 4 weeks. After 4 weeks, the dry eye rabbit model was evaluated, with the conjunctiva appearing dry, tear production being reduced, and Schirmer test values being less than 10 mm/5 min (compared to the control group, where all Schirmer test values were above 10 mm).
1.2.3 Drug preparation and usage: a liquid formulation of 0.1% TAT-N16 peptide eye drops were prepared by dissolving the peptide raw materials in physiological saline according to a weight ratio of 0.1%. The eye drops comprising 0.1% TAT-N16 peptide were administered 2 drops, 3 times a day for 7 days. The blank control group received no treatment, and the solvent control group received physiological saline eye drops 2 drops, 3 times a day for 7 days. The normal eye group served as a normal control group.
1.3 Specimen collection and animal testing were conducted by the same individual. […] The rabbit conjunctiva appearance, fluorescein staining, tear film break-up time were analyzed using a slit lamp before and on days 4 and 7 after treatment; additionally, the Schirmer's test and conjunctival impression cytology (CIC) were carried out.
1.3.1 Schirmer's test: the corneal surface was anesthetized with oxybuprocaine hydrochloride; a cotton swab was used to absorb the fluid around the eyelid; the Schirmer tear test strips were placed at the junction of the ⅓ posterior-middle of the lower conjunctival sac of the New Zealand white rabbit, with the remaining part hanging on the skin surface; the New Zealand white rabbit was then instructed to close its eyes, and after 5 minutes, the length of wet portion of the Schirmer tear test strips was measured.

[4] = 0 d (baseline), drug treatment group, 0.1% eye drops
[5] = 4 d, 0.1% eye drops four times a day
[6] = 7 d, 0.1% eye drops four times a day

## TAT-N16 peptide: cell-penetrating artificial peptide, sequence SEQ ID NO: 2, constructed by linking the peptide N16 to a TAT sequence; P55PIK inhibitor (YGRKKRRQRRRMMPYSTELIFYIEMDP)
[1]; [4]
  Tear film break-up time (BUT) values (x ± s): 3.49 ± 0.43 s
[1]; 4th day of treatment
  Tear film break-up time compared with blank control group, model control group and solvent control group: significantly longer
[1]; [5]
  Tear film break-up time (BUT) values (x ± s): 4.82 ± 0.57 s
[1]; [6]
  Tear film break-up time (BUT) values (x ± s): 5.99 ± 0.55 s
[1]; 7 days of continuous treatment, P=0.007
  Tear film break-up time compared with blank control group, model control group and solvent control group: significantly longer
[2]; [4]
  Corneal fluorescein staining scores (x ± s): 8.29 ± 1.31
[2]; 4th day of treatment
  Corneal fluorescein staining score compared with blank control group, model control group and solvent control group: significantly lower
[2]; [5]
  Corneal fluorescein staining scores (x ± s): 4.12 ± 0.81
[2]; [6]
  Corneal fluorescein staining scores (x ± s): 2.79 ± 1.25
[2]; 7 days of continuous treatment, P<0.05
  Corneal fluorescein staining score compared with blank control group, model control group and solvent control group: significantly lower
[3]; 0 d / before treatment (baseline), drug treatment group
  Schirmer' test values: 8.38±0.57 mm
[3]; 4 d, 0.1% eye drops 2 drops, 3 times a day
  Schirmer' test values: 12.02±1.21 mm
[3]; 7 d, 0.1% eye drops 2 drops, 3 times a day
  Schirmer' test values: 16.31±1.45 mm
